Results from ChEMBL document CHEMBL3826966, “A chromatography-free isolation of rohitukine from leaves of Dysoxylum binectariferum: Evaluation for in vitro cytotoxicity, Cdk inhibition and physicochemical properties” (Bioorg Med Chem Lett, 2016).

Experiments:
[1] = molecular target: MAP kinase-activated protein kinase 5 (Homo sapiens) (UniProt Q8IW41); test: Inhibition of human PRAK (1 to 471 residues) assessed as remaining enzyme activity at 50 uM after 30 mins by 33P-ATP filter-binding assay
[2] = molecular target: Glycogen synthase kinase-3 beta (Homo sapiens) (UniProt P49841); test: Inhibition of human GSK3beta (2 to 420 residues) assessed as remaining enzyme activity at 50 uM after 30 mins by 33P-ATP filter-binding assay
Glycogen synthase kinase-3 beta (Homo sapiens), sequence (P49841 whole entry, looked up, the tested form may be a part): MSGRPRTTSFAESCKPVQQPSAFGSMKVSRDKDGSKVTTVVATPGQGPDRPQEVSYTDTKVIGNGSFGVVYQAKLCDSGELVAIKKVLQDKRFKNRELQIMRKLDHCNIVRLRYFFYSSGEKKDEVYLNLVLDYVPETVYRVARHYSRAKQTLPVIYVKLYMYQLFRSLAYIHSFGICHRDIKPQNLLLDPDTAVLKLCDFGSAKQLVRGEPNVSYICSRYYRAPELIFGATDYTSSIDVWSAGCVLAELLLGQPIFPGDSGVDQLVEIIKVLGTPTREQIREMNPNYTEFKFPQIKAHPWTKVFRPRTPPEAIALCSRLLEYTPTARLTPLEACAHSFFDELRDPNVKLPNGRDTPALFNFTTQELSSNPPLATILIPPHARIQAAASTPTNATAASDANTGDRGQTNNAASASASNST

[3] = molecular target: Aurora kinase B (Homo sapiens) (UniProt Q96GD4); test: Inhibition of human Aurora B (1 to 344 residues) assessed as remaining enzyme activity at 50 uM after 30 mins by 33P-ATP filter-binding assay
[4] = molecular target: Serine/threonine-protein kinase BRSK1 (Homo sapiens) (UniProt Q8TDC3); test: Inhibition of human BRSK1 (2 to 778 residues) assessed as remaining enzyme activity at 50 uM after 30 mins by 33P-ATP filter-binding assay
[5] = molecular target: Serine/threonine-protein kinase BRSK2 (Homo sapiens) (UniProt Q8IWQ3); test: Inhibition of human BRSK2 (2 to 674residues) assessed as remaining enzyme activity at 50 uM after 30 mins by 33P-ATP filter-binding assay
Serine/threonine-protein kinase BRSK2 (Homo sapiens), sequence (Q8IWQ3 whole entry, the tested form may be a part): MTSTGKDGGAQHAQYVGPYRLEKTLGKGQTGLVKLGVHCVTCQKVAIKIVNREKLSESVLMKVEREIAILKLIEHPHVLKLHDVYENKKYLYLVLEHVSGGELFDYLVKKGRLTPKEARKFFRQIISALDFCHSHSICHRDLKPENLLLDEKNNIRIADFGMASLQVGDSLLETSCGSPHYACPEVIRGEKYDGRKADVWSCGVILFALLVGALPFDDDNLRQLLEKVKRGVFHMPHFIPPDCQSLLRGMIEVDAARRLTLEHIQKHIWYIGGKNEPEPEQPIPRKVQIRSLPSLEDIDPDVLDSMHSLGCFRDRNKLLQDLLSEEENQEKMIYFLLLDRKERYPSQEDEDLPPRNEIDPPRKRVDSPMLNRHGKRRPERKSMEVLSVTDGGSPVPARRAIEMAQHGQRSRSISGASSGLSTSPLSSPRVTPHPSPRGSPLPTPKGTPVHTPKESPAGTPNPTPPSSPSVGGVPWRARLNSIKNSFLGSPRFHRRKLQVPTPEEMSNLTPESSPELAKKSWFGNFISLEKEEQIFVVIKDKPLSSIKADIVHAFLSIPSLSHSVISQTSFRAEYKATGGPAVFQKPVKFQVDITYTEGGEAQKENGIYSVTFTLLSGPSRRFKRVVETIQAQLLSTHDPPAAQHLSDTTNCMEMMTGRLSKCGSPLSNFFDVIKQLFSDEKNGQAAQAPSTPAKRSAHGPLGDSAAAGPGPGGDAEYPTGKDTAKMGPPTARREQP

[6] = molecular target: Serine/threonine-protein kinase SIK3 (Homo sapiens) (UniProt Q9Y2K2); test: Inhibition of human SIK3 (2 to 1369 residues) assessed as remaining enzyme activity at 50 uM after 30 mins by 33P-ATP filter-binding assay
Serine/threonine-protein kinase SIK3 (Homo sapiens), sequence (Q9Y2K2 whole entry, looked up, the tested form may be a part): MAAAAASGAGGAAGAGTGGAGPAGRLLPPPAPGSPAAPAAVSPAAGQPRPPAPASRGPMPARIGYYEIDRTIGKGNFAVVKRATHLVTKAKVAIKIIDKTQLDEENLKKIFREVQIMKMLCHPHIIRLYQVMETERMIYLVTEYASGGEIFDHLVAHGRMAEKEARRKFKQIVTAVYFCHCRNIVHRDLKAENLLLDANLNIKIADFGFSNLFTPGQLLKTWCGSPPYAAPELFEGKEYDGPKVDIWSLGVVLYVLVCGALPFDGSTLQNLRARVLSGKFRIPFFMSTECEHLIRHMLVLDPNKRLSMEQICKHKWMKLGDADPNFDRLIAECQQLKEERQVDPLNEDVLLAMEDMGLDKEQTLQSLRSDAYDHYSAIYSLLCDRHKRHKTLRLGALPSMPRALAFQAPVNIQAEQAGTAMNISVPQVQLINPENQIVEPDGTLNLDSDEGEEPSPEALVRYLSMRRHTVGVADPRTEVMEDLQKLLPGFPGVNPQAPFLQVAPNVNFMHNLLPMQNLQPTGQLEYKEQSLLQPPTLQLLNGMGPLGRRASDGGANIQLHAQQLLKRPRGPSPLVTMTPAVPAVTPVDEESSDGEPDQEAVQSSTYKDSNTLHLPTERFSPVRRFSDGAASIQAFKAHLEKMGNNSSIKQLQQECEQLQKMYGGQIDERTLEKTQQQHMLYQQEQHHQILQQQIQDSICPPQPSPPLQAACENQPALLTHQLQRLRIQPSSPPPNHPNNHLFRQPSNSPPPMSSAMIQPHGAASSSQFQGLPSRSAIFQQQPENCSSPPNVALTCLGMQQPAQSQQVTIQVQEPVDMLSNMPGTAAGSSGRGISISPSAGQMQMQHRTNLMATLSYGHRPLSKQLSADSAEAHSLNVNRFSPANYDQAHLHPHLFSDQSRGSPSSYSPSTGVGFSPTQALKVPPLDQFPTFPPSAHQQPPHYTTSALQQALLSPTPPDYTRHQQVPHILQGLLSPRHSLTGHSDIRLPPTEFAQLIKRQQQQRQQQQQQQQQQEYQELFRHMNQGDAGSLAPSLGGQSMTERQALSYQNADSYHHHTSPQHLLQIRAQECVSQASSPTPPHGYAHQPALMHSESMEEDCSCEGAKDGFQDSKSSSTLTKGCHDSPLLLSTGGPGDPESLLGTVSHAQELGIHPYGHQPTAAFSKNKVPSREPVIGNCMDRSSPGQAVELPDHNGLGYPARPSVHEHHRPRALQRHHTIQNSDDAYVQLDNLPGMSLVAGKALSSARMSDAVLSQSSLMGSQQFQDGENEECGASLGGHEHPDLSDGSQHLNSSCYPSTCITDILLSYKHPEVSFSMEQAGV

[7] = molecular target: Tau-tubulin kinase 1 (Homo sapiens) (UniProt Q5TCY1); test: Inhibition of human TTBK1 (1 to 1321 residues) assessed as remaining enzyme activity at 50 uM after 30 mins by 33P-ATP filter-binding assay
[8] = molecular target: Serine/threonine-protein kinase pim-2 (Homo sapiens) (UniProt Q9P1W9); test: Inhibition of human PIM2 (2 to 334 residues) assessed as remaining enzyme activity at 50 uM after 30 mins by 33P-ATP filter-binding assay
[9] = molecular target: Serine/threonine-protein kinase pim-3 (Homo sapiens) (UniProt Q86V86); test: Inhibition of human PIM3 (2 to 326 residues) assessed as remaining enzyme activity at 50 uM after 30 mins by 33P-ATP filter-binding assay
[10] = molecular target: SRSF protein kinase 1 (Homo sapiens) (UniProt Q96SB4); test: Inhibition of human SRPK1 (2 to 654 residues) assessed as remaining enzyme activity at 50 uM after 30 mins by 33P-ATP filter-binding assay
[11] = molecular target: Eukaryotic translation initiation factor 2-alpha kinase 3 (Homo sapiens) (UniProt Q9NZJ5); test: Inhibition of human EIF2AK3 (536 to 1116 residues) assessed as remaining enzyme activity at 50 uM after 30 mins by 33P-ATP filter-binding assay
[12] = molecular target: Dual specificity protein kinase CLK2 (Homo sapiens) (UniProt P49760); test: Inhibition of human CLK2 (138 to 499 residues) assessed as remaining enzyme activity at 50 uM after 30 mins by 33P-ATP filter-binding assay
[13] = molecular target: Serine/threonine-protein kinase PAK 6 (Homo sapiens) (UniProt Q9NQU5); test: Inhibition of human PAK6 (2 to 681 residues) assessed as remaining enzyme activity at 50 uM after 30 mins by 33P-ATP filter-binding assay
[14] = molecular target: Receptor-interacting serine/threonine-protein kinase 2 (Homo sapiens) (UniProt O43353); test: Inhibition of human RIPK2 (2 to 311 residues) assessed as remaining enzyme activity at 50 uM after 30 mins by 33P-ATP filter-binding assay
[15] = molecular target: Ephrin type-A receptor 4 (Homo sapiens) (UniProt P54764); test: Inhibition of human EPHA4 (580 to 986 residues) assessed as remaining enzyme activity at 50 uM after 30 mins by 33P-ATP filter-binding assay
[16] = molecular target: High affinity nerve growth factor receptor (Homo sapiens) (UniProt P04629); test: Inhibition of human TRKA (441 to 760 residues) assessed as remaining enzyme activity at 50 uM after 30 mins by 33P-ATP filter-binding assay
High affinity nerve growth factor receptor (Homo sapiens), sequence (P04629 33-796 limits assumed): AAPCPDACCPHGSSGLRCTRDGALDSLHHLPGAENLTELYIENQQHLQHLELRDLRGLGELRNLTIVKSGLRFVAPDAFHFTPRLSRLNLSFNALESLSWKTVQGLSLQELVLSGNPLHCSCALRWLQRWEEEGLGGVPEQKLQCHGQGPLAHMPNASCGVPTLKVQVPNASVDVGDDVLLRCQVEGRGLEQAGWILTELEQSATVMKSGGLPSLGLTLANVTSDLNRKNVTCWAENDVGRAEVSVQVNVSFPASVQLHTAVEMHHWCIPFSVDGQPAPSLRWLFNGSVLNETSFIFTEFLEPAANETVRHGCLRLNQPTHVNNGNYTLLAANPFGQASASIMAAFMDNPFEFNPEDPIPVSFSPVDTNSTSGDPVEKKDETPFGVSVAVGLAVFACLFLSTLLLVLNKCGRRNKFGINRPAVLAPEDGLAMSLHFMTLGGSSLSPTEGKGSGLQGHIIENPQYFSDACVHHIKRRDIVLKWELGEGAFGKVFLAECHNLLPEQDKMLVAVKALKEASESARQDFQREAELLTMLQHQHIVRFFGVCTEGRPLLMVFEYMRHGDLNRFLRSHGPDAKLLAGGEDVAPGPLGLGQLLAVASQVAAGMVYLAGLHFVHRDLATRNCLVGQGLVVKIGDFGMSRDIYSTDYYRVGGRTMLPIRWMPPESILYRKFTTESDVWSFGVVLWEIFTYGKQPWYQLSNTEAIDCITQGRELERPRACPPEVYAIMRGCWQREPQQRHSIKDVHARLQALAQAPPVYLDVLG

HL-60 = test: Induction of apoptosis in human HL60 cells assessed as apoptotic cells at 5 uM (reference value: 1 %); type: functional
[17] = Partition coefficient, logP of the compound in water/PBS buffer at 25 degC by retention time method; type: physicochemical
CDK2/Cyclin A2 = CDK2/Cyclin A2 (Homo sapiens, UniProt P24941); test: Inhibition of human Cdk2/cyclin A using histone H1 substrate after 30 mins by 33P-ATP filter-binding assay; type: protein-complex assay
[18] = molecular target: MAP kinase-activated protein kinase 2 (Homo sapiens) (UniProt P49137); test: Inhibition of human MAPKAPK2 assessed as remaining enzyme activity at 50 uM after 30 mins by 33P-ATP filter-binding assay
[19] = Cytotoxicity against human HL60 cells assessed as cell growth inhibition after 48 hrs by MTT assay; type: functional; details: HL-60, 48 h
ASPC1 = test: Cytotoxicity against human AsPC1 cells assessed as cell growth inhibition after 48 hrs by MTT assay; type: functional; details: ASPC1, 48 h
PSN1 = test: Cytotoxicity against human PSN1 cells assessed as cell growth inhibition after 48 hrs by MTT assay; type: functional; details: PSN1, 48 h
[20] = Cytotoxicity against human PC3 cells assessed as cell growth inhibition after 48 hrs by MTT assay; type: functional; details: PC-3, 48 h
U-251 = test: Cytotoxicity against human U251 cells assessed as cell growth inhibition after 48 hrs by MTT assay; type: functional; details: U-251, 48 h
[21] = Cytotoxicity against human SF539 cells assessed as cell growth inhibition after 48 hrs by MTT assay; type: functional; details: SF-539, 48 h
[22] = molecular target: Mitogen-activated protein kinase 1 (Homo sapiens) (UniProt P28482); test: Inhibition of human ERK2 (2 to 360 residues) assessed as remaining enzyme activity at 50 uM after 30 mins by 33P-ATP filter-binding assay
[23] = molecular target: Mitogen-activated protein kinase 10 (Homo sapiens) (UniProt P53779); test: Inhibition of human JNK3 (40 to 422 residues) assessed as remaining enzyme activity at 50 uM after 30 mins by 33P-ATP filter-binding assay
[24] = molecular target: 3-phosphoinositide-dependent protein kinase 1 (Homo sapiens) (UniProt O15530); test: Inhibition of human PDK1 (52 to 556 residues) assessed as remaining enzyme activity at 50 uM after 30 mins by 33P-ATP filter-binding assay
3-phosphoinositide-dependent protein kinase 1 (Homo sapiens), sequence (O15530 whole entry, the tested form may be a part): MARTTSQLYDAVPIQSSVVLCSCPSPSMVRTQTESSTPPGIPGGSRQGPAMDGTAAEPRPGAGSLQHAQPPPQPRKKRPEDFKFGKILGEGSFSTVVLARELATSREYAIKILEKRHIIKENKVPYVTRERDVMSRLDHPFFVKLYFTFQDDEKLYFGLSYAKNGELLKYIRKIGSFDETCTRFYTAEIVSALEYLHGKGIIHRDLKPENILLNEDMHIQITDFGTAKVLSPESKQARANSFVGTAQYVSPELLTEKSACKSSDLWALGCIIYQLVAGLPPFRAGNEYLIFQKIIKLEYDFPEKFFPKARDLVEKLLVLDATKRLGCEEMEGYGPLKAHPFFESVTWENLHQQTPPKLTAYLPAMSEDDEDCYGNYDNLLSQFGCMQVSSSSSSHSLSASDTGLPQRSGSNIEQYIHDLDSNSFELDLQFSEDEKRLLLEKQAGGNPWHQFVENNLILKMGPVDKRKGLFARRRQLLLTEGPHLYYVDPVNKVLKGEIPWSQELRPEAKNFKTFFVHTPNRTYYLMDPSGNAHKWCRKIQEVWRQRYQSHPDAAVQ

[25] = molecular target: RAC-beta serine/threonine-protein kinase (Homo sapiens) (UniProt P31751); test: Inhibition of human PKBbeta assessed as remaining enzyme activity at 50 uM after 30 mins by 33P-ATP filter-binding assay
RAC-beta serine/threonine-protein kinase (Homo sapiens), sequence (P31751 whole entry): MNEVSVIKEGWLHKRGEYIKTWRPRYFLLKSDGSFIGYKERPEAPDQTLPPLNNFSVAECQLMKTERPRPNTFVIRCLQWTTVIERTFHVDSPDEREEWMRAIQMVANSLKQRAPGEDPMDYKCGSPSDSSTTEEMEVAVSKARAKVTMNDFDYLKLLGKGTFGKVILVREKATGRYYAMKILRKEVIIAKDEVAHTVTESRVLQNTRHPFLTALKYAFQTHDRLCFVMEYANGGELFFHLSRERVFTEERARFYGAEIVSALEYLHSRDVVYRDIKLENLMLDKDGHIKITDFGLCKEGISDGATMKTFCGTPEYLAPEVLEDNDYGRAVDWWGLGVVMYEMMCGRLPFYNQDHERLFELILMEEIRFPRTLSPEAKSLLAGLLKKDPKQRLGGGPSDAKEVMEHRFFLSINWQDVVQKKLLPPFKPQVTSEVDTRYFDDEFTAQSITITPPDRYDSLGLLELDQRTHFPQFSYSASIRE

[26] = molecular target: Serine/threonine-protein kinase Sgk1 (Homo sapiens) (UniProt O00141); test: Inhibition of human SGK1 assessed as remaining enzyme activity at 50 uM after 30 mins by 33P-ATP filter-binding assay
[27] = molecular target: Protein kinase C gamma type (Homo sapiens) (UniProt P05129); test: Inhibition of human PKCgamma (1 to 697 residues) assessed as remaining enzyme activity at 50 uM after 30 mins by 33P-ATP filter-binding assay

MAP kinase-activated protein kinase 5 (Homo sapiens), sequence (Q8IW41 whole entry, the tested form may be a part): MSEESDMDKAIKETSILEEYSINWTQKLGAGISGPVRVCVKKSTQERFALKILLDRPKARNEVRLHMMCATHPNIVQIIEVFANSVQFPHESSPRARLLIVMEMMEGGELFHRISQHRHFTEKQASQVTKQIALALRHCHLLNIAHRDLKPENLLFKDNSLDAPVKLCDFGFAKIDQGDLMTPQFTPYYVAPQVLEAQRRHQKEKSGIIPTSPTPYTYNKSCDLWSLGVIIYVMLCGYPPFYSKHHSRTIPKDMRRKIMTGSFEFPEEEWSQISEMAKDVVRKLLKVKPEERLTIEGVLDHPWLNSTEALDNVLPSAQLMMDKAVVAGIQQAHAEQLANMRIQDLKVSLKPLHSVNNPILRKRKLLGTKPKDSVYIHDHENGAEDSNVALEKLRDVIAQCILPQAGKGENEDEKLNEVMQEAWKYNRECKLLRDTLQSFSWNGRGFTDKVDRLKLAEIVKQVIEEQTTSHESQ

`Cc1cc(=O)c2c(O)cc(O)c([C@H]3CCN(C)C[C@H]3O)c2o1` [ROHITUKINE] showed an Activity [1] of 72%, an Activity [2] of 66% and an Activity [3] of 58%. For the same compound, the Activity [4] was 36%, the Activity [5] was 65% and the Activity [6] was 28%. It also gave an Activity [7] of 82%, an Activity [8] of 67% and an Activity [9] of 12%. For the same compound, the Activity [10] was 40%, the Activity [11] was 82% and the Activity [12] was 45%. For the same compound, the Activity [13] was 79%, the Activity [14] was 63% and the Activity [15] was 53%. It also gave an Activity [16] of 89%, an Activity (HL-60) of 4% and a logP [17] of 1.01. For the same compound, the IC50 (CDK2/Cyclin A2) was 7.3 µM, the Activity [18] was 52% and the GI50 [19] was 10 µM. The GI50 (ASPC1) was 21 µM, the GI50 (PSN1) was 23 µM and the GI50 [20] was 19 µM. For the same compound, the GI50 (U-251) was 32 µM, the GI50 [21] was 30 µM and the Activity [22] was 90%. It also gave an Activity [23] of 87%, an Activity [24] of 90% and an Activity [25] of 80%. It also gave an Activity [26] of 92% and an Activity [27] of 89%.
